Molecular target: T1, p53(Y220C) (Homo sapiens, UniProt P04637, Y220C)
T1 construct: His-p53 Y220C (94-294) protein
Assay: In vitro DNA binding assay (HTRF), His-p53 Y220C (94-294) with biotinylated p53 consensus DNA
Assay type: biochemical
Settings: HTRF; 27 °C; His-p53 Y220C (94-294) 2.5 nM; biotinylated DNA 10 nM; normalized to 2 μM Ref-1a; EC50 = concentration at 50% Activation; read-out: p53(Y220C) EC50
Method: After His-p53 Y220C (94-294) protein was placed with a compound in the present of MAb Anti His-Tb cryptate (Cisbio, Cat. NO. 61HI2TLA) in a 384 well microplate (Greiner) for 15 min at 25 °C, the assay plate was transferred into 27 °C incubator and incubated for 60 min. Biotinalyted p53 consensus DNA (ID: p53-SEQUENCE 2 —F: 5′(biotin)-[…] 3′ —R: 5′ […] 3′) was added into the assay plate in the present of Streptaidin-d2 (Cisbio, Cat. NO. 610SADLF) cryptate (Final concentration: 20 mM HEPES pH=7.4, 75 mM KCl, 1 mM MgCl2, 0.1% (w/v) BSA, 1 mM DTT, 2.5 nM His-P53 Y220C (94-294) protein, 0.33 nM MAb Anti His-Tb cryptate, 2.5 nM Streptaidin-d2 cryptate, 10 nM Biotinalyted DNA) and incubated for another 60 min. Wells containing 2 μM reference compound Ref-1a served as high control, and wells containing same percentage of DMSO served as low control. Homogeneous time-resolved fluorescence (HTRF) signals were read on Tecan Spark multimode microplate reader. HTRF ratios for each individual well were calculated by equation: HTRF ratio=(Signal F665/Signal F620)*1000. The percent of activation of compounds treated wells were normalized between high control and low control (% Activation=(HTRF ratiocompound treated−HTRF ratiolow control)/(HTRF ratiohigh control−HTRF ratiolow control)*100%). Then the data were analyzed either by fitting a 4-parameter logistic model or by Excel to calculate EC50 values. And the EC50 was the concentration at 50% Activation on the curve.

`COc1cc(P(C)(C)=O)ccc1NCC#Cc1sc2c(NC3CCN(C)CC3)nccc2c1CC(F)(F)F` [Example 4, (3-methoxy-4-((3-(7-((1-methylpiperidin-4-yl)amino)-3-(2,2,2-trifluoroethyl)thieno[2,3-c]pyridin-2-yl)prop-2-yn-1-yl)amino)phenyl)dimethylphosphine oxide] gave an EC50 of 353 nM.
`COc1cc(N2CC(=O)NS2(=O)=O)ccc1NCC#Cc1sc2c(N[C@@H]3CCN(C)C[C@@H]3F)cccc2c1CC(F)(F)F` [Example 5, 5-(4-((3-(7-(((3S,4R)-3-fluoro-1-methylpiperidin-4-yl)amino)-3-(2,2,2-trifluoroethyl)benzo[b]thiophen-2-yl)prop-2-yn-1-yl)amino)-3-methoxyphenyl)-1,2,5-thiadiazolidin-3-one-1,1-dioxide] was tested, and the EC50 was 323 nM.
Molecule `COc1cc(P(C)(C)=O)ccc1NCC#Cc1sc2c(NC3CCS(=N)(=O)CC3)cccc2c1CC(F)(F)F` (stereo not drawn) [Example 6, (4-((3-(7-((1-imino-1-oxidohexahydro-1l6-thiopyran-4-yl)amino)-3-(2,2,2-trifluoroethyl)benzo[b]thiophen-2-yl)prop-2-yn-1-yl)amino)-3-methoxyphenyl)dimethylphosphine oxide] has an EC50 of 209 nM.
`COc1cc(P(C)(C)=O)ccc1NCC#Cc1sc2c(NCC3(F)CCN(C)CC3)cccc2c1CC(F)(F)F` [Example 16, (4-((3-(7-(((4-fluoro-1-methylpiperidin-4-yl)methyl)amino)-3-(2,2,2-trifluoroethyl)benzo[b]thiophen-2-yl)prop-2-yn-1-yl)amino)-3-methoxyphenyl)dimethylphosphine oxide] was tested, and the EC50 was 250 nM.
In the case of `COc1cc(P(C)(C)=O)ccc1NCC#Cc1sc2c(N[C@H]3CCN(C)C[C@H]3F)cccc2c1C(C)C(F)(F)F` (stereo partly drawn) [Example 17, (4-((3-(7-(((3R,4S)-3-fluoro-1-methylpiperidin-4-yl)amino)-3-(1,1,1-trifluoropropan-2-yl)benzo[b]thiophen-2-yl)prop-2-yn-1-yl)amino)-3-methoxyphenyl)dimethylphosphine oxide], the EC50 is reported as 251 nM.
`COc1cc(P(C)(C)=O)ccc1NCC#Cc1sc2c(N[C@@H]3CCN(C)C[C@@H]3F)cccc2c1C(C)C(F)(F)F` (stereo partly drawn) [Example 18, (4-((3-(7-(((3S,4R)-3-fluoro-1-methylpiperidin-4-yl)amino)-3-(1,1,1-trifluoropropan-2-yl)benzo[b]thiophen-2-yl)prop-2-yn-1-yl)amino)-3-methoxyphenyl)dimethylphosphine oxide] was tested, and the EC50 was 574 nM.
`CN1CC[C@@H](Nc2cccc3c(CC(F)(F)F)c(C#C[C@@H]4Cc5cc(P(C)(C)=O)ccc5N4)sc23)[C@@H](F)C1` [Example 21, ((S)-2-((7-(((3S,4R)-3-fluoro-1-methylpiperidin-4-yl)amino)-3-(2,2,2-trifluoroethyl)benzo[b]thiophen-2-yl)ethynyl)indolin-5-yl)dimethylphosphine oxide] gave an EC50 of 424 nM.
Work on `CN1CC[C@@H](Nc2cccc3c(CC(F)(F)F)c(C#C[C@H]4Cc5cc(P(C)(C)=O)ccc5N4)sc23)[C@@H](F)C1` [Example 22, ((R)-2-((7-(((3S,4R)-3-fluoro-1-methylpiperidin-4-yl)amino)-3-(2,2,2-trifluoroethyl)benzo[b]thiophen-2-yl)ethynyl)indolin-5-yl)dimethylphosphine oxide] yielded an EC50 of 313 nM.
In the case of `COc1cc([S@](=N)(=O)C2CCOCC2)ccc1NCC#Cc1sc2c(N[C@@H]3CCN(C)C[C@@H]3F)cccc2c1CC(F)(F)F` [Example 25, (R)-(4-((3-(7-(((3S,4R)-3-fluoro-1-methylpiperidin-4-yl)amino)-3-(2,2,2-trifluoroethyl)benzo[b]thiophen-2-yl)prop-2-yn-1-yl)amino)-3-methoxyphenyl)(imino)(tetrahydro-2H-pyran-4-yl)-16-sulfanone], the EC50 is reported as 62 nM.

Reference: patent US20260374794A1, “COMPOUNDS TARGETING MUTANT OF P53” (JACOBIO PHARMACEUTICALS CO., LTD., priority 2022, published 2026)
